Our source for the Content, Hyoscyamine and Moisture values is patent US12303500B2, “Method for improving stability of low-concentration atropine ophthalmic preparation” (SHENYANG XINGQI PHARMACEUTICAL CO., LTD., priority 2018, dated 2025).

For this data set the following is noted: 40°C±2°C, RH 75%±5%.

Counter-ions that a name gives are not always drawn. Like-named read-outs stand apart in the source and are kept apart here.

Excerpt: In the chromatogram of the sample solution, the chromatographic peaks with peak area smaller than 0.5 times of the main peak area of the control solution should be ignored.

For `CN1[C@@H]2CC[C@H]1C[C@@H](OC(=O)C(CO)c1ccccc1)C2` (stereo partly drawn) [Example 160903-P01, atropine sulfate], the Content stood at 100.3% (0th month); 100.3% (1st month); 100.2% (2nd month); 100.4% (3rd month); 100.3% (6th month). In addition, the Hyoscyamine entry (0th month) was “+0.002°”; the Hyoscyamine result (1st month) is given as “+0.002°”; the Hyoscyamine entry (2nd month) was “+0.001°”; the Hyoscyamine (3rd month) is 0.000°; the Hyoscyamine (6th month) came to 0.000°. Also, the Moisture came to 3.15% (0th month); 3.24% (1st month); 2.97% (2nd month); 3.49% (3rd month); 3.69% (6th month).
